# According to patent publication US11253634B2, “Cationic steroidal antibiotic compositions for the treatment of dermal tissue” (BRIGHAM YOUNG UNIVERSITY, priority 2016, dated 2022):
# Legend:
# Pseudomonas aeruginosa = experiment: MIC/MBC against mixed-species biofilms: P. aeruginosa; assay type: cell-based; details: mixed-species biofilms grown 22 hours, 20 hours of treatment
# Method: (§1) Several CSA compounds were tested against Pseudomonas aeruginosa and Staphylococcus aureus mixed-species biofilms grown for an initial 22 hours and subjected to 20 hours of treatment.
# Staphylococcus aureus = experiment: MIC/MBC against mixed-species biofilms: S. aureus; assay type: cell-based; details: mixed-species biofilms grown 22 hours, 20 hours of treatment
# Method: as §1
# primary human MSC cells = experiment: Gene expression (q-PCR, inflammation-related mRNA panel) after CSA treatment of primary cells; assay type: cell-based; details: 8 hours treatment, CSA-13 at 5.0 μM; for Fold Regulation, IL1A: gene IL1A (Interleukin-1 alpha); for Fold Regulation, IL1A / Fold Regulation, IL1B / Fold Regulation, IRAK2 / Fold Regulation, NFKBIA / Fold Regulation, TLR2 / Fold Regulation, TLR4 / Fold Regulation, TLR6 / Fold Regulation, TLR8 / Fold Regulation, TLR9 / Fold Regulation, TNF / Fold Regulation, TNFRSF1A: q-PCR; for Fold Regulation, IL1B: gene IL1B (Interleukin-1 beta); for Fold Regulation, IRAK2: gene IRAK2 (Interleukin-1 receptor-associated kinase 2); for Fold Regulation, NFKB1: gene NFKB1, q-PCR; for Fold Regulation, NFKB2: gene NFKB2, q-PCR; for Fold Regulation, NFKBIA: gene NFKBIA; for Fold Regulation, TLR2: gene TLR2 (Toll-like receptor 2); for Fold Regulation, TLR4: gene TLR4 (Toll-like receptor 4); for Fold Regulation, TLR6: gene TLR6 (Toll-like receptor 6); for Fold Regulation, TLR8: gene TLR8 (Toll-like receptor 8); for Fold Regulation, TLR9: gene TLR9 (Toll-like receptor 9); for Fold Regulation, TNF: gene TNF (Tumor necrosis factor); for Fold Regulation, TNFRSF1A: gene TNFRSF1A
# [1] = Solubility of CSA-131 salt in cyanoacrylate; assay type: physicochemical
# Method: CSA-131 (bis-DNS salt) was used in this Example. This material is a stable, colorless solid and is insoluble in cyanoacrylate. To ensure uniform distribution of CSA-131 in the cyanoacrylate polymer, the solid was micronized using a jet mill to give an average particle size of 200 nm. The resulting powder was added to cyanoacrylate to give a 5% (w/w) mixture, which was vigorously agitated. No immediate change in viscosity was observed, and the mixture remained non-viscous for more than 15 min.
# IL-6 = experiment: Kidney IL-6 levels in P. aeruginosa pneumonia model; assay type: in vivo, C57/BL6 mice; details: 24 hours post-infection
# Text: IL-6 is a marker of systemic inflammation. Female C57/BL6 mice were infected in the respiratory tract with a non-lethal dose of P. aeruginosa as a model of pneumonia.
# [2] = test system: 74 clinical isolates (All); experiment: Broth microdilution susceptibility testing, all clinical isolates; assay type: cell-based; details: All (74) isolates; no unit in column head (MIC levels of table in μg/ml)
# Method: (§2) CSA-131 was tested in vitro against a set of clinical isolates representing bacterial species commonly associated with hospital-acquired infections. Antimicrobial susceptibility testing for 74 clinical isolates was performed.
# [3] = test system: Staphylococcus aureus (10); experiment: Broth microdilution susceptibility testing, S. aureus isolates; assay type: cell-based; details: unit inferred, unit assumed
# Method: as §2
# [4] = test system: Streptococcus Pneumoniae (10); experiment: Broth microdilution susceptibility testing, S. pneumoniae isolates; assay type: cell-based; details: unit inferred, unit assumed
# Method: as §2
# Haemophilus spp. (10) = experiment: Broth microdilution susceptibility testing, Haemophilus spp. isolates; assay type: cell-based, H. influenza and H. parainfluenzae; details: unit inferred, unit assumed
# Method: as §2
# Enterobacteriaceae (22) = experiment: Broth microdilution susceptibility testing, Enterobacteriaceae isolates; assay type: cell-based; details: unit inferred, unit assumed
# Method: as §2
# Non-fermenters (22) = experiment: Broth microdilution susceptibility testing, non-fermenter isolates; assay type: cell-based, A. baumannii species complex, P. aeruginosa, S. maltophilia; details: unit inferred, unit assumed
# Method: as §2
smiles,measurement,setting,value
CCCCCCCCCOC(=O)CC[C@@H](C)[C@H]1CC[C@H]2[C@@H]3[C@H](OC(=O)CCN)C[C@@H]4C[C@H](OC(=O)CCN)CC[C@]4(C)[C@H]3C[C@H](OC(=O)CCN)[C@]12C [CSA-145],MBC P. aeruginosa,Pseudomonas aeruginosa,50 mg/L
same,MIC P. aeruginosa,Pseudomonas aeruginosa,12.5 mg/L
same,MBC S. aureus,Staphylococcus aureus,3.125 mg/L
same,MIC S. aureus,Staphylococcus aureus,3.125 mg/L
CCCCCN(CCCCC)CCCC(C)C1CCC2C3C(OCCCN)CC4CC(OCCCN)CCC4(C)C3CC(OCCCN)C12C.Cl.Cl.Cl.Cl (centres unmarked) [CSA-90],"Fold Regulation, IL1A",primary human MSC cells,−6.96 fold
same,"Fold Regulation, IL1B",primary human MSC cells,−3.6734 fold
same,"Fold Regulation, IRAK2",primary human MSC cells,−52.0069 fold
same,"Fold Regulation, NFKB1",primary human MSC cells,−4.718 fold
same,"Fold Regulation, NFKB2",primary human MSC cells,−2.5474 fold
same,"Fold Regulation, NFKBIA",primary human MSC cells,−26.0352 fold
same,"Fold Regulation, TLR2",primary human MSC cells,−13.6933 fold
same,"Fold Regulation, TLR4",primary human MSC cells,−3.4278 fold
same,"Fold Regulation, TLR6",primary human MSC cells,−2.0885 fold
same,"Fold Regulation, TLR8",primary human MSC cells,−4.1972 fold
same,"Fold Regulation, TLR9",primary human MSC cells,−1.8613 fold
same,"Fold Regulation, TNF",primary human MSC cells,−4.8514 fold
same,"Fold Regulation, TNFRSF1A",primary human MSC cells,−7.3196 fold
same,MBC P. aeruginosa,Pseudomonas aeruginosa,6.25 mg/L
same,MIC P. aeruginosa,Pseudomonas aeruginosa,6.25 mg/L
same,MBC S. aureus,Staphylococcus aureus,1.56 mg/L
same,MIC S. aureus,Staphylococcus aureus,1.56 mg/L
CCCCCCCCCCCCNCCCC(C)C1CCC2C3C(OCCCN)CC4CC(OCCCN)CCC4(C)C3CC(OCCCN)C12C.O=S(=O)(O)c1cccc2c(S(=O)(=O)O)cccc12.O=S(=O)(O)c1cccc2c(S(=O)(=O)O)cccc12 (centres unmarked) [CSA-131 (bis-DNS salt)],Solubility in cyanoacrylate,[1],insoluble
CCCCCCCCOC(=O)CC[C@@H](C)[C@H]1CC[C@H]2[C@@H]3[C@H](OC(=O)CCN)C[C@@H]4C[C@H](OC(=O)CCN)CC[C@]4(C)[C@H]3C[C@H](OC(=O)CCN)[C@]12C [CSA-44],"Fold Regulation, IL1A",primary human MSC cells,−6.0325 fold
same,"Fold Regulation, IL1B",primary human MSC cells,−28.5329 fold
same,"Fold Regulation, IRAK2",primary human MSC cells,−31.8021 fold
same,"Fold Regulation, NFKB1",primary human MSC cells,−3.2891 fold
same,"Fold Regulation, NFKB2",primary human MSC cells,−2.2766 fold
same,"Fold Regulation, NFKBIA",primary human MSC cells,−52.206 fold
same,"Fold Regulation, TLR2",primary human MSC cells,−15.7179 fold
same,"Fold Regulation, TLR4",primary human MSC cells,−2.977 fold
same,"Fold Regulation, TLR6",primary human MSC cells,−2.392 fold
same,"Fold Regulation, TLR8",primary human MSC cells,−8.2256 fold
same,"Fold Regulation, TLR9",primary human MSC cells,−1.8905 fold
same,"Fold Regulation, TNF",primary human MSC cells,−25.9588 fold
same,"Fold Regulation, TNFRSF1A",primary human MSC cells,−2.2461 fold
CC(O)C1CCC2C3C(OCCCN)CC4CC(OCCCN)CCC4(C)C3CC(OCCCN)C12C.Cl.Cl.Cl (centres unmarked) [CSA-11],MBC P. aeruginosa,Pseudomonas aeruginosa,>200 mg/L
same,MIC P. aeruginosa,Pseudomonas aeruginosa,>200 mg/L
same,MBC S. aureus,Staphylococcus aureus,50 mg/L
same,MIC S. aureus,Staphylococcus aureus,50 mg/L
CC(CCCNCCCNCCCN)C1CCC2C3C(OCCCN)CC4CC(OCCCN)CCC4(C)C3CC(OCCCN)C12C.Cl.Cl.Cl.Cl.Cl.Cl (centres unmarked) [CSA-54],MBC P. aeruginosa,Pseudomonas aeruginosa,100 mg/L
same,MIC P. aeruginosa,Pseudomonas aeruginosa,50 mg/L
same,MBC S. aureus,Staphylococcus aureus,25 mg/L
same,MIC S. aureus,Staphylococcus aureus,6.25 mg/L
CCCCCCCCNCCC[C@@H](C)[C@H]1CC[C@H]2[C@@H]3[C@H](OCCCN)C[C@@H]4C[C@H](OCCCN)CC[C@]4(C)[C@H]3C[C@H](OCCCN)[C@]12C [CSA-13],Effect of treatment on kidney IL-6 levels,IL-6,significantly reduced
CCCCCCCCCCCCCNCCC[C@@H](C)[C@H]1CC[C@H]2[C@@H]3[C@H](OCCCN)C[C@@H]4C[C@H](OCCCN)CC[C@]4(C)[C@H]3C[C@H](OCCCN)[C@]12C [CSA-138],MBC P. aeruginosa,Pseudomonas aeruginosa,6.25 mg/L
same,MIC P. aeruginosa,Pseudomonas aeruginosa,3.125 mg/L
same,MBC S. aureus,Staphylococcus aureus,3.125 mg/L
same,MIC S. aureus,Staphylococcus aureus,1.56 mg/L
CC(CCCO)C1CCC2C3C(OCCCN)CC4CC(OCCCN)CCC4(C)C3CC(OCCCN)C12C.Cl.Cl.Cl (centres unmarked) [CSA-8],MBC P. aeruginosa,Pseudomonas aeruginosa,100 mg/L
same,MIC P. aeruginosa,Pseudomonas aeruginosa,25 mg/L
same,MBC S. aureus,Staphylococcus aureus,6.25 mg/L
same,MIC S. aureus,Staphylococcus aureus,3.125 mg/L
CCCCCCCCCCCCNCCC[C@@H](C)[C@H]1CC[C@H]2[C@@H]3[C@H](OCCCN)C[C@@H]4C[C@H](OCCCN)CC[C@]4(C)[C@H]3C[C@H](OCCCN)[C@]12C.Cl.Cl.Cl.Cl [CSA-131],MIC50,[2],4
same,MIC90,[2],8
same,MIC50,[3],2 mg/L
same,MIC90,[3],2 mg/L
same,MIC50,[4],4 mg/L
same,MIC90,[4],4 mg/L
same,MIC50,Haemophilus spp. (10),8 mg/L
same,MIC90,Haemophilus spp. (10),8 mg/L
same,MIC50,Enterobacteriaceae (22),4 mg/L
same,MIC90,Enterobacteriaceae (22),4 mg/L
same,MIC50,Non-fermenters (22),4 mg/L
same,MIC90,Non-fermenters (22),4 mg/L
CCCCCCCCCCOC(=O)CC[C@@H](C)[C@H]1CC[C@H]2[C@@H]3[C@H](OC(=O)CCN)C[C@@H]4C[C@H](OC(=O)CCN)CC[C@]4(C)[C@H]3C[C@H](OC(=O)CCN)[C@]12C [CSA-144],MBC P. aeruginosa,Pseudomonas aeruginosa,50 mg/L
same,MIC P. aeruginosa,Pseudomonas aeruginosa,12.5 mg/L
same,MBC S. aureus,Staphylococcus aureus,3.125 mg/L
same,MIC S. aureus,Staphylococcus aureus,3.125 mg/L
